From US11716994B2, “Combinations of Yersinia entomophaga and pesticides or other substances” (priority 2017, dated 2023) come the findings set out here.

“And” between values parts separate entries of the source, which are not always exact repeats. Equal entries are not always repeated. Where two headings read alike, the source gives them in different places.

The subject of series [1] is cabbage looper.
Series [2] deals with tobacco budworm. The settings on record: for LT50 (95% confidence intervals) in days: in vivo; for % Mort. Chem. / LT50 Chem.: tobacco budworm; for % Mort. Chem.: 1 DAT.
The test system of series [3] is tobacco budworm. Kind of series: whole plant or invertebrate. Conditions: Heliothis virescens, foliar.
The test system of the next series is corn earworm. Kind of series: Leaf disk mortality assay, Y. entomophaga cells with chemical insecticides. It is filed as in vivo. Details: mortality: dose or concentration left out as unconfirmed. The settings on record: for % Mort. Chem. / LT50 Chem.: corn earworm. The procedure: 50 μl suspensions of either acetone (controls and Y. entomophaga alone treatments) or of thiodicarb (Sigma 34375) at a concentration of 140 mg/L in acetone were then dropped onto each cabbage disk. These were set to dry for 1 hr. After the disks had dried, one 2nd instar corn earworm was added to each disk. A total of 12 insects were evaluated for each treatment.
50 μl suspensions of either acetone (controls and Y. entomophaga alone treatments) or of chlorantraniliprole (Sigma 32510) at a concentration of 18 mg/L in acetone were then dropped onto each cabbage disk. These were set to dry for 1 hr. After the disks had dried, one 2nd instar corn earworm was added to each disk. A total of 24 insects were evaluated for each treatment.

The next series has as its system Yersinia entomophaga. Kind of series: CFU counts after exposure of Yersinia entomophaga to insecticides. The format is cell-based. Conditions: 1 hour contact. An outline of the steps: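 Insecticides at 1× (label-rate based) and 5× or 10× amounts were dried from ethyl acetate as a coat inside tubes. Diluted LB-grown Y. entomophaga culture (1 ml) was added and held 1 hour on the bench. Then 100 μl was plated in triplicate on LB and colonies were counted after 48 hours at 25° C.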

Series [4] relates to cabbage looper. Kind of series: whole plant or invertebrate. Conditions: Trichoplusia ni, foliar.
Series [5] relates to Colorado potato beetle. Kind of series: Tomato leaf disk mortality assay, Y. entomophaga cells with chemical insecticides. The settings on record: for mortality at 0.56 µg/mL: Leptinotarsa decemlineata, in Solanum lycopersicum, foliar.
For the next series, the system named is western flower thrips. Kind of series: Leaf disk mortality assay, Y. entomophaga cells with chemical insecticides. The format is in vivo. Conditions: for mortality at 100 µg/mL: Frankliniella occidentalis, foliar; for mortality at 100 µg/mL / LT50 (95% confidence intervals) in days: adults, imidacloprid 100 mg/L; for % Mort. Chem.: Imidacloprid 100 mg/L. The procedure: These were set to dry for 1 hr. After the disks had dried, two were placed in individual cups and 12 adult western flower thrips were added. This experiment was repeated and a total of 24 insects were evaluated for each treatment.

Series [6] has as its system Colorado potato beetle. The settings on record: for LT50 (95% confidence intervals): 3rd instar Colorado potato beetle, O43NEW undiluted filtrate, alone or combined.
Experimental: (§2) To produce cell free filtrates, cultures of Yersinia entomophaga grown in LB medium were centrifuged at 11,448 (g) for 10 minutes. The supernatant was decanted from the centrifuged pellet and filtered through a 0.22 μm filter. Assays were performed to determine concentrations of Yen-TC (toxin complex) using ELISA, and chitinase by measuring chitinase activity on specific substrates. […] This was done to estimate relative potency of the cell free filtrates. Insects were first pre-screened with a range of dilutions of cell free filtrates to select a concentration that provided moderate activity. […] Based on these initial screens, undiluted cell free filtrate was used for cabbage looper, fall armyworm, black cutworm, and Colorado potato beetle. […] In each of the Examples below, this is expressed as 1%.
Tomato leaf disks were dipped in either acetone (controls and Y. entomophaga alone treatments) or thiacloprid (Sigma 37905) at 1 mg/L in acetone. These were set to dry for 1 hr. […] After the tomato disks had dried for 1 hr, a single 3rd instar Colorado potato beetle was added to each individual cabbage disk. A total of 20 insects were evaluate for each treatment. Insects were observed daily and scored as live or dead.
The test system of series [7] is diamondback moth. The settings on record: in vivo.
Series [8] concerns fall armyworm. Kind of series: Leaf disk mortality assay, Y. entomophaga cells with chemical insecticides.
Series [9] deals with fall armyworm. Conditions: in vivo.
Series [10] relates to diamondback moth. Kind of series: Leaf disk mortality assay, Y. entomophaga cells with chemical insecticides. The settings on record: in vivo.
In series [11] the test system is cabbage looper. Conditions: spinosad 7.5 mg/L.
Experimental: as §2
Cabbage leaf disks were dipped in either acetone (controls and Y. entomophaga alone treatments) or novaluron (Sigma 32419) at 1.0 mg/L in acetone. These were set to dry for 1 hr. […] After the cabbage disks had dried for 1 hr, a single 3rd instar cabbage looper was added to each individual cabbage disk. A total of 20 insects were evaluate for each treatment. Insects were observed daily and scored as live or dead.
Series [12] deals with diamondback moth. Kind of series: whole plant or invertebrate. The settings on record: spinosad […].
Text: (§1) These were set to dry for 1 hr.
as §1
These were set to dry for 1 hr. Cabbage disks were then dipped in either 1% Luria broth (LB) media solution (controls and thiacloprid alone treatments) or in 1% cell free filtrate from a culture Y. entomophaga isolate O24G3R (Y. entomophaga alone or in combination with thiacloprid treatments).

Series [13] relates to Colorado potato beetle. Conditions: in vivo.
Setting [14] is: Chlorantraniliprole alone 18 mg/L.
Where [15] appears, read: 24 h, read-out: % Mortality (1DAT).
Setting [16] is: 48 h, read-out: % Mortality (2DAT).
Setting [17] is: 3rd instar, spinosad 25 mg/L, isolate O24G3R 1×10^5 cfu/mL.
Setting [18] is: 3rd instar, spinosad 25 mg/L, isolate O348UX 1×10^5 cfu/mL.

Usually mortality stands for the percentage killed. On to `CNC(=O)c1cc(Cl)cc(C)c1NC(=O)c1cc(Br)nn1-c1ncccc1Cl` [Chlorantraniliprole], for which the “% Mort. Chem.” value with cabbage looper [1] (cabbage looper, Chlorantraniliprole 18 mg/L, 1 DAT) was determined as 8%; with cabbage looper [1] (in vivo) it was 38%; in the series on tobacco budworm [2] (Chlorantraniliprole 18 mg/L), 8%; in the series on corn earworm (Chlorantraniliprole 18 mg/L, 2 DAT (row with O43NEW 1 × 10^3)) it was 0%; in the series on corn earworm (Chlorantraniliprole 18 mg/L, 2 DAT (row with O43NEW 1 × 10^5)), 0%. The “LT50 Chem.” value was 2.39 days in the series on cabbage looper [1] (cabbage looper, Chlorantraniliprole alone 18 mg/L); 2.20 days with tobacco budworm [2] (setting [14]); 3.29 days and 3.44 days in the series with corn earworm (setting [14]). Besides, the “LT50 (95% confidence intervals) in days” value in the series on cabbage looper [1] (in vivo) was 2.39 (2.10-2.70) days; in the series with tobacco budworm [2] it was 2.20 (1.91-2.53) days; in the series with corn earworm (2nd instar, chlorantraniliprole 18 mg/L, isolate O43NEW 1×10^5 cfu/mL), 3.29 (2.85-3.77) days. Also, the mortality at 18 µg/mL in the series on tobacco budworm [3] (setting [15]) worked out at 8%; in the series with tobacco budworm [3] (setting [16]), 25%; in the series with corn earworm (Helicoverpa zea, foliar, 24 h, 2nd instar, chlorantraniliprole 18 mg/L, isolate O43NEW 1×10^5 cfu/mL, read-out: % Mortality (1DAT)) it was 0%; in the series on corn earworm (Helicoverpa zea, foliar, 48 h, 2nd instar, chlorantraniliprole 18 mg/L, isolate O43NEW 1×10^5 cfu/mL, read-out: % Mortality (2DAT)) it was 0%; in the series with cabbage looper [4] (setting [15]), 8%; in the series on cabbage looper [4] (setting [16]), 38%. The “Average CFU” value with Yersinia entomophaga (0.15 mg insecticide) is reported as 523 CFU; in the series with Yersinia entomophaga (2.0 mg insecticide), 387 CFU.

Regarding `O=[N+]([O-])NC1=NCCN1Cc1ccc(Cl)nc1` [Imidacloprid], the “LT50 (95% confidence intervals) in days” value is given as 20.38 (15.79-27.60) days with Colorado potato beetle [5] (4th instar larva, imidacloprid 0.56 mg/L, isolate O43NEW 1×10^7 cfu/mL); 2.72 (2.40-3.08) days in the series with western flower thrips (isolate O43NEW 1×10^5 cfu/mL); 2.72 (2.40-3.08) days in the series with western flower thrips (isolate O333A4 1×10^5 cfu/mL). Moreover, the “% Mort. Chem.” value with Colorado potato beetle [5] (Colorado potato beetle, Imidacloprid 0.56 mg/L, 10 DAT) turned out to be 17%; with western flower thrips (western flower thrips, 2 DAT (row with O43NEW)), 29%; with western flower thrips (western flower thrips, 2 DAT (row with O333A4)), 16%; with Colorado potato beetle [6] (Colorado potato beetle, imidacloprid 0.56 mg/L, 6 DAT), 5%. Further, the “LT50 Chem.” value in the series on Colorado potato beetle [5] (Colorado potato beetle, Imidacloprid alone 0.56 mg/L) worked out at 20.38 days; in the series with western flower thrips (western flower thrips, Imidacloprid alone 100 mg/L), 2.72 days; in the series on Colorado potato beetle [6] (Colorado potato beetle, imidacloprid 0.56 mg/L), 18.03 days. Besides, the mortality at 0.56 µg/mL in the series on Colorado potato beetle [5] (72 h, read-out: % Mortality (3DAT)) was 0%; with Colorado potato beetle [5] (240 h, read-out: % Mortality (10DAT)), 17%; in the series on Colorado potato beetle [5] (312 h, read-out: % Mortality (13DAT)) it was 7%. Also, the mortality at 100 µg/mL in the series on western flower thrips (24 h, isolate O333A4 1×10^5 cfu/mL, read-out: % Mortality (1DAT)) was found to be 16%; in the series on western flower thrips (48 h, isolate O43NEW 1×10^5 cfu/mL, read-out: % Mortality (2DAT)), 29%. In addition, the “LT50 (95% confidence intervals)” value in the series on Colorado potato beetle [6] (imidacloprid 0.56 mg/L) came to 18.03 days.

For `CS/C(C)=N\OC(=O)N(C)SN(C)C(=O)O/N=C(\C)SC` [Thiodicarb], the “LT50 Chem.” value in the series with cabbage looper [1] (cabbage looper, Thiodicarb alone 140 mg/L) was 1.40 days; in the series with tobacco budworm [2] (Thiodicarb alone 140 mg/L) it was 1.98 days; in the series on corn earworm (Thiodicarb alone 140 mg/L), 2.02 days. In addition, the “% Mort. Chem.” value in the series on cabbage looper [1] (in vivo) was found to be 25%; in the series on tobacco budworm [2] (Thiodicarb 140 mg/L), 25%; with corn earworm (Thiodicarb 140 mg/L, 1 DAT) it was 0%; with corn earworm (Thiodicarb 140 mg/L, 2 DAT), 33%. Moreover, the “LT50 (95% confidence intervals)” value in the series on cabbage looper [1] (in vivo) was determined as 1.40 days. In addition, the “LT50 (95% confidence intervals) in days” value with tobacco budworm [2] is 1.98 (1.57-2.45) days; in the series with corn earworm (2nd instar, thiodicarb 140 mg/mL, isolate O43NEW 1×10^7 cfu/mL), 2.02 (1.60-2.50) days. In addition, the mortality at 140 µg/mL turned out to be 25% with tobacco budworm [3] (setting [15]), 50% in the series on tobacco budworm [3] (setting [16]), 25% with cabbage looper [4] (setting [15]) and 50% in the series with cabbage looper [4] (setting [16]). Besides, the mortality in the series on corn earworm (Helicoverpa zea, foliar, 24 h, 2nd instar, thiodicarb, isolate O43NEW 1×10^7 cfu/mL, read-out: % Mortality (1DAT)) was found to be 0%.

For the compound Spinosad, the “% Mortality (2DAT)” value was 0% in the series with diamondback moth [7] and 10% in the series on cabbage looper [11] (3rd instar cabbage looper, O43NEW undiluted filtrate, alone or combined, 2 DAT, Abbott's corrected). Also, the “% Mortality (3DAT)” value in the series on diamondback moth [7] was found to be 10%; in the series with fall armyworm [8] (setting [17]), 80%; with fall armyworm [8] (setting [18]) it was 80%; in the series on fall armyworm [9] it was 40%; with Colorado potato beetle [13], 15%. The “% Mortality (4DAT)” value in the series with diamondback moth [7] is listed as 15%; in the series on Colorado potato beetle [13] it was 20%. In addition, the “% Mortality (7DAT)” value with diamondback moth [7] came out at 40%. For the same compound, the “% Mortality (9DAT)” value is listed as 39% in the series on diamondback moth [7] and 55% in the series with cabbage looper [11] (3rd instar cabbage looper, O43NEW undiluted filtrate, alone or combined, 9 DAT, Abbott's corrected). Further, the “% Mortality (11DAT)” value with diamondback moth [7] is 65%. The “LT50 (95% confidence intervals) in days” value with fall armyworm [8] (setting [17]) was 2.43 (2.08-2.84) days; with fall armyworm [8] (setting [18]) it was 2.43 (2.08-2.84) days; in the series with fall armyworm [8] (in vivo), 4.09 (3.67-4.55) days; in the series with Colorado potato beetle [5] (in vivo) it was 6.01 (4.93-7.28) days. Also, the “% Mort. Chem.” value was determined as 80% in the series with fall armyworm [8] (fall armyworm, Spinosad 25 mg/L, 3 DAT (row with 024G3R)); 80% in the series on fall armyworm [8] (fall armyworm, Spinosad 25 mg/L, 3 DAT (row with O348UX)); 40% in the series with fall armyworm [8] (in vivo); 25% in the series with cabbage looper [11] (Cabbage Looper, 5 DAT). The “LT50 Chem.” value in the series with fall armyworm [8] (fall armyworm, Spinosad alone 25 mg/L) was 4.09 days and 2.43 days; in the series on diamondback moth [10], 8.16 days; in the series on cabbage looper [11] (Cabbage Looper), 7.01 days; in the series with diamondback moth [12] (Diamondback moth) it was 8.16 days; in the series on Colorado potato beetle [5] (Colorado potato beetle, Spinosad alone […]), 6.01 days; in the series with Colorado potato beetle [6] (Colorado potato beetle, spinosad […]) it was 78.30 days. Moreover, the “LT50 (95% confidence intervals)” value is 8.16 days in the series on diamondback moth [10]; 8.16 days with diamondback moth [12] (2nd instar diamondback moth, O43NEW filtrate 1%, alone or combined); 78.3 days in the series with Colorado potato beetle [6] (spinosad […]). Moreover, the “% Mortality (5DAT)” value was found to be 25% in the series on cabbage looper [11] (3rd instar cabbage looper, O43NEW undiluted filtrate, alone or combined, 5 DAT, Abbott's corrected) and 40% with Colorado potato beetle [13]. In addition, the “% Mortality (6DAT)” value in the series with cabbage looper [11] (3rd instar cabbage looper, O43NEW undiluted filtrate, alone or combined, 6 DAT, Abbott's corrected) is on record as 50%. In addition, in the series with cabbage looper [11] (3rd instar cabbage looper, O43NEW undiluted filtrate, alone or combined, 8 DAT, Abbott's corrected), the “% Mortality (8DAT)” value is on record as 55%. Moreover, the “Average CFU” value with Yersinia entomophaga (0.2 mg insecticide) is listed as 523 CFU; with Yersinia entomophaga (1.0 mg insecticide) it was 487 CFU.
